Laboratory results from patent US20230022488A1, “Laundry Composition” (FIRMENICH SA, priority 2019, published 2023).

Each compound was assayed on panelist (assay: Odor threshold concentration (Log T / Log ODT) by gas chromatograph with sniff port). Details: ingredient of Perfume oil A (Table 1).
Set-up: species or system human
Description: “High impact perfume raw materials” should be understood as perfume raw materials having a Log T<−4. The odor threshold concentration of a chemical compound is determined in part by its shape, polarity, partial charges and molecular mass. For convenience, the threshold concentration is presented as the common logarithm of the threshold concentration, i.e., Log [Threshold] (“Log T”).
The odor threshold concentration of a perfuming compound is determined by using a gas chromatograph (“GC”). Specifically, the gas chromatograph is calibrated to determine the exact volume of the perfume oil ingredient injected by the syringe, the precise split ratio, and the hydrocarbon response using a hydrocarbon standard of known concentration and chain-length distribution. The air flow rate is accurately measured and, assuming the duration of a human inhalation to last 12 seconds, the sampled volume is calculated. […] To determine the threshold concentration, solutions are delivered to the sniff port at the back-calculated concentration. A panelist sniffs the GC effluent and identifies the retention time when odor is noticed. The average across all panelists determines the odor threshold concentration of the perfuming compound. The determination of odor threshold is described in more detail in C.

Compound | Log ODT
(1 RS,2RS)-2,4-DIMETHYL-3-CYCLOHEXENE-1-CARBALDEHYDE (A) + (1 RS,2SR)-2,4-DIMETHYL-3-CYCLOHEXENE-1-CARBALDEHYDE (B) | >−4
c1ccc(Oc2ccccc2)cc1 [1,1′-OXYDIBENZENE] | >−4
TRICYCLO[5.2.1.0~2,6~]DEC-3-EN-8-YL ACETATE (A) + TRICYCLO[5.2.1.0~2,6~]DEC-4-EN-8-YL ACETATE (B) | >−4
CCCCC[C@H]1C(=O)CC[C@@H]1CC(=O)OC (racemic) [METHYL 2-((1RS,2RS)-3-OXO-2-PENTYLCYCLOPENTYL) ACETATE] | >−4
2-METHYLBUTYL SALICYLATE (A) + PENTYL SALICYLATE (B) | >−4
(2RS,4SR)-4-METHYL-2-(2-METHYL-1-PROPEN-1-YL)TETRAHYDRO-2H-PYRAN (A) + (2RS,4RS)-4-METHYL-2-(2-METHYL-1-PROPEN-1-YL)TETRAHYDRO-2H-PYRAN (B) | >−4

Same assay, conditions: ingredient of Perfume oil B (Table 3)

Compound | Log ODT
CC(C)c1cccc(C(C)CC=O)c1 (racemic) [(+−)-3-(3-ISOPROPYL-1-PHENYL)BUTANAL] | <−4
.ALPHA.-DIHYDROTERPINEOL (A) + .BETA.-DIHYDROTERPINEOL (B) | >−4
TRICYCLO[5.2.1.0~2,6~]DEC-3-EN-8-YL ACETATE (A) + TRICYCLO[5.2.1.0~2,6~]DEC-4-EN-8-YL ACETATE (B) | >−4
(+−)-4-METHYLENE-2-PHENYLTETRAHYDRO-2H-PYRAN (A) + (+−)-4-METHYL-6-PHENYL-3,6-DIHYDRO-2H-PYRAN (B) + (+−)-4-METHYL-2-PHENYL-3,6-DIHYDRO-2H-PYRAN (C) | <−4
10-UNDECENAL (A) + (9E)-9-UNDECENAL (B) + (9Z)-9-UNDECENAL (C) | <−4
(2Z)-1,1-DIETHOXY-3,7-DIMETHYL-2,6-OCTADIENE (A) + (2E)-1,1-DIETHOXY-3,7-DIMETHYL-2,6-OCTADIENE (B) | >−4
(2RS,4SR)-4-METHYL-2-(2-METHYL-1-PROPEN-1-YL)TETRAHYDRO-2H-PYRAN (A) + (2RS,4RS)-4-METHYL-2-(2-METHYL-1-PROPEN-1-YL)TETRAHYDRO-2H-PYRAN (B) | >−4
3-(4-ETHYLPHENYL)-2,2-DIMETHYLPROPANAL (A) + 3-(2-ETHYLPHENYL)-2,2-DIMETHYLPROPANAL (B) | >−4

Same assay, conditions: ingredient of Perfume oil C (Table 5)

Compound | Log ODT
(1 RS,2RS)-2,4-DIMETHYL-3-CYCLOHEXENE-1-CARBALDEHYDE (A) + (1 RS,2SR)-2,4-DIMETHYL-3-CYCLOHEXENE-1-CARBALDEHYDE (B) | >−4
3,5,6-TRIMETHYL-3-CYCLOHEXENE-1-CARBALDEHYDE (A) + 2,4,6-TRIMETHYL-3-CYCLOHEXENE-1-CARBALDEHYDE (B) | >−4
CCCCC[C@H]1C(=O)CC[C@@H]1CC(=O)OC (racemic) [METHYL 2-((1RS,2RS)-3-OXO-2-PENTYLCYCLOPENTYL) ACETATE] | >−4
10-UNDECENAL (A) + (9E)-9-UNDECENAL (B) + (9Z)-9-UNDECENAL (C) | <−4
(+−)-(3E)-3-METHYL-4-(2,6,6-TRIMETHYL-2-CYCLOHEXEN-1-YL)-3-BUTEN-2-ONE (A) + (+−)-(1E)-1-(2,6,6-TRIMETHYL-2-CYCLOHEXEN-1-YL)-1-PENTEN-3-ONE (B) | <−4
3,7-DIMETHYL-2,6-NONADIENENITRILE (A) + 3,7-DIMETHYL-3,6-NONADIENENITRILE (B) | >−4
1-OXA-12-CYCLOHEXADECEN-2-ONE (A) + 1-OXA-13-CYCLOHEXADECEN-2-ONE (B) | >−4

Same assay, conditions: ingredient of Perfume oil D (Table 7)

Compound | Log ODT
(+)-(3S)-3-[(1R)-4-METHYL-3-CYCLOHEXEN-1-YL]BUTANAL (A) + (+)-(3R)-3-[(1R)-4-METHYL-3-CYCLOHEXEN-1-YL]BUTANAL | >−4
(+−)-4-METHYLENE-2-PHENYLTETRAHYDRO-2H-PYRAN (A) + (+−)-4-METHYL-6-PHENYL-3,6-DIHYDRO-2H-PYRAN (B) + (+−)-4-METHYL-2-PHENYL-3,6-DIHYDRO-2H-PYRAN (C) | <−4
(2Z)-1,1-DIETHOXY-3,7-DIMETHYL-2,6-OCTADIENE (A) + (2E)-1,1-DIETHOXY-3,7-DIMETHYL-2,6-OCTADIENE (B) | >−4
